Laboratory results published in the supplement of paper PMC10307832.

compound: CC1=C(N=C(N=C1N)[C@H](CC(=O)N)NC[C@@H](C(=O)N)N)C(=O)N[C@@H]([C@H](C2=CN=CN2)OC3C(C(C(C(O3)CO)O)O)OC4C(C(C(C(O4)CO)O)OC(=O)N)O)C(=O)N[C@H](C)[C@H]([C@H](C)C(=O)N[C@@H]([C@@H](C)O)C(=O)NCCC5=NC(=CS5)C6=NC(=CS6)C(=O)NCCC[S+](C)C)O [Bleomycin] + Cc1nc(Nc2ncc(C(=O)Nc3c(C)cccc3Cl)s2)cc(N2CCN(CCO)CC2)n1 [Dasatinib] (partner 0.075 µM); experiment: relative viability (nuclei count vs DMSO), 5 days (fraction); higher = more cells survive; conditions: first compound 1 µM; main component drawn
Outline: (§1)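 For relative viability, nuclei counts in treated wells were divided by those in vehicle wells. Lung cancer cell lines had been pin-tool dosed in 1536-well plates the day after seeding and cultured for 5 days, then fixed and stained in one step (final 0.05% Triton X-100, 1% formaldehyde, 1 ug/ml Hoechst) and imaged at 4×. Doses were one drug alone or a fixed anchor-drug dose plus five library-drug doses (not always all listed) in √10 steps, and values are duplicate-plate medians.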

RERF-LC-KJ showed a relative viability of 0.191.

compound: CC1=C(N=C(N=C1N)[C@H](CC(=O)N)NC[C@@H](C(=O)N)N)C(=O)N[C@@H]([C@H](C2=CN=CN2)OC3C(C(C(C(O3)CO)O)O)OC4C(C(C(C(O4)CO)O)OC(=O)N)O)C(=O)N[C@H](C)[C@H]([C@H](C)C(=O)N[C@@H]([C@@H](C)O)C(=O)NCCC5=NC(=CS5)C6=NC(=CS6)C(=O)NCCC[S+](C)C)O [Bleomycin] + O=C(CCCCCCC(=O)Nc1ccccc1)NO [Vorinostat] (partner 1 µM); experiment: as above; conditions: first compound 0.01 µM; main component drawn
Outline: as §1

In order of rising relative viability:
1. NCI-H1944  0.284
2. NCI-H2023  0.409
3. NCI-H1975  0.482
4. RERF-LC-KJ  0.489
5. NCI-H358  0.539
6. NCI-H1755  0.606
7. LC-2-ad  0.62
8. NCI-H1793  0.714
9. EKVX  0.724
10. SK-LU-1  0.734
11. HCC-15  0.77
12. NCI-H661  0.777
13. PC-3 [JPC-3]  0.788
14. ABC-1  1.24

same assay, conditions: first compound 0.03162 µM; main component drawn

In order of falling relative viability:
1. ABC-1  1.28
2. PC-3 [JPC-3]  0.928
3. HCC-15  0.864
4. SK-LU-1  0.746
5. NCI-H1755  0.736
6. NCI-H358  0.722
7. NCI-H661  0.708
8. NCI-H1793  0.647
9. EKVX  0.611
10. LC-2-ad  0.609
11. RERF-LC-KJ  0.55
12. NCI-H1975  0.514
13. NCI-H2023  0.385
14. NCI-H1944  0.244

same assay, conditions: first compound 0.1 µM; main component drawn

In order of falling relative viability:
1. ABC-1  1.07
2. PC-3 [JPC-3]  0.737
3. NCI-H1755  0.714
4. HCC-15  0.702
5. NCI-H358  0.661
6. EKVX  0.607
7. NCI-H661  0.565
8. NCI-H1793  0.525
9. SK-LU-1  0.521
10. LC-2-ad  0.466
11. RERF-LC-KJ  0.421
12. NCI-H1975  0.386
13. NCI-H2023  0.338
14. NCI-H1944  0.265

same assay, conditions: first compound 0.3162 µM; main component drawn

In order of rising relative viability:
1. NCI-H2023  0.0999
2. NCI-H1944  0.154
3. NCI-H1793  0.215
4. NCI-H1975  0.215
5. LC-2-ad  0.236
6. HCC-15  0.327
7. NCI-H358  0.327
8. RERF-LC-KJ  0.344
9. EKVX  0.366
10. NCI-H661  0.376
11. SK-LU-1  0.454
12. PC-3 [JPC-3]  0.46
13. NCI-H1755  0.521
14. ABC-1  0.684

same assay, conditions: first compound 1 µM; main component drawn

In order of rising relative viability:
1. NCI-H2023  0.114
2. NCI-H1793  0.141
3. NCI-H1944  0.152
4. NCI-H1975  0.162
5. LC-2-ad  0.2
6. NCI-H358  0.217
7. HCC-15  0.249
8. RERF-LC-KJ  0.25
9. NCI-H661  0.346
10. SK-LU-1  0.348
11. EKVX  0.411
12. PC-3 [JPC-3]  0.417
13. ABC-1  0.579
14. NCI-H1755  0.636

compound: COc1cc([C@@H]2c3cc4c(cc3[C@@H](O[C@@H]3O[C@@H]5CO[C@@H](C)O[C@H]5[C@H](O)[C@H]3O)[C@H]3COC(=O)[C@H]23)OCO4)cc(OC)c1O [Etoposide] + Cc1cc(Nc2cc(N3CCN(C)CC3)nc(Sc3ccc(NC(=O)C4CC4)cc3)n2)n[nH]1 [Tozasertib] (partner 0.1 µM); experiment: as above; conditions: first compound 0.01 µM
Outline: as §1

In order of falling relative viability:
1. PC-3 [JPC-3]  0.841
2. NCI-H1975  0.721
3. NCI-H1755  0.57
4. RERF-LC-KJ  0.532
5. EKVX  0.412
6. LC-2-ad  0.39
7. HCC-15  0.386
8. SK-LU-1  0.356
9. NCI-H661  0.342
10. NCI-H1793  0.324
11. NCI-H2023  0.308
12. NCI-H1944  0.258
13. ABC-1  0.176
14. NCI-H358  0.112

same assay, conditions: first compound 0.03162 µM

In order of rising relative viability:
1. NCI-H358  0.107
2. ABC-1  0.202
3. NCI-H1944  0.278
4. SK-LU-1  0.278
5. NCI-H1793  0.311
6. NCI-H2023  0.337
7. HCC-15  0.348
8. EKVX  0.355
9. NCI-H661  0.374
10. LC-2-ad  0.441
11. RERF-LC-KJ  0.448
12. NCI-H1755  0.577
13. NCI-H1975  0.67
14. PC-3 [JPC-3]  0.882

same assay, conditions: first compound 0.1 µM

In order of falling relative viability:
1. PC-3 [JPC-3]  0.928
2. NCI-H1975  0.785
3. NCI-H1755  0.565
4. RERF-LC-KJ  0.493
5. NCI-H2023  0.429
6. HCC-15  0.367
7. NCI-H661  0.332
8. LC-2-ad  0.327
9. SK-LU-1  0.318
10. EKVX  0.312
11. NCI-H1944  0.211
12. ABC-1  0.186
13. NCI-H358  0.107

same assay, conditions: first compound 0.3162 µM

In order of rising relative viability:
1. NCI-H358  0.0887
2. SK-LU-1  0.161
3. NCI-H1944  0.182
4. ABC-1  0.199
5. HCC-15  0.23
6. NCI-H2023  0.291
7. NCI-H1793  0.316
8. NCI-H661  0.323
9. EKVX  0.326
10. LC-2-ad  0.339
11. RERF-LC-KJ  0.386
12. NCI-H1755  0.483
13. NCI-H1975  0.495
14. PC-3 [JPC-3]  0.853

same assay, conditions: first compound 1 µM

In order of rising relative viability:
1. NCI-H358  0.0917
2. NCI-H2023  0.109
3. HCC-15  0.122
4. SK-LU-1  0.167
5. NCI-H1944  0.168
6. NCI-H1793  0.185
7. ABC-1  0.195
8. NCI-H1975  0.197
9. EKVX  0.221
10. LC-2-ad  0.285
11. RERF-LC-KJ  0.316
12. NCI-H661  0.353
13. NCI-H1755  0.44
14. PC-3 [JPC-3]  0.707
